According to paper PMC12175533, “A cell-cell communication signal from Enterobacter cloacae interfering with the signaling systems and virulence in Shigella sonnei” (Applied and Environmental Microbiology, 2025):

Target: T1, YjgB (ECL_RS22935), alcohol dehydrogenase (Enterobacter cloacae, UniProt A0A0H3CR94)
T1 construct: gene ECL_04598; full-length ORF in pET-28a(+), His-tag fusion, E. coli BL21(DE3) with ZnCl2, HisTrap
Assay: HPLC product formation assay
Type: biochemical
Settings: 200 uM substrate, 0.2 mM NADPH, 50 mM Tris-HCl, pH 8.0, 37 °C, 10 uM enzyme

T1 sequence (A0A0H3CR94 entry or part of it): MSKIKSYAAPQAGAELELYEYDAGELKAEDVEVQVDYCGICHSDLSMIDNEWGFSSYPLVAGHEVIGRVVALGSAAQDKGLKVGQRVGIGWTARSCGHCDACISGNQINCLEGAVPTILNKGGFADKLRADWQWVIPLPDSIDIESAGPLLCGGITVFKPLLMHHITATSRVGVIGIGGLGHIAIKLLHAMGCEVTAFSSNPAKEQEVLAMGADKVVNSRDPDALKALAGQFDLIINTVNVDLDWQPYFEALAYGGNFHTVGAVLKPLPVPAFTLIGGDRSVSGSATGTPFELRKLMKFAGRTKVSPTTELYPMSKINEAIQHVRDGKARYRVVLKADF

SMILES: O=CCc1c[nH]c2ccccc12 [indole-3-acetaldehyde]
- HPLC product formation assay: In vitro enzymatic assays demonstrated that YjgB directly catalyzed the conversion of indole-3-acetaldehyde to indole-3-ethanol

SMILES: OCCc1c[nH]c2ccccc12 [indole-3-ethanol]
- HPLC product formation assay: YjgB directly catalyzed the conversion of indole-3-acetaldehyde to indole-3-ethanol
